Among the data in the SangsterLogP compilation are logD values, retold here.

This data set is described as follows: method code SF, from DOI: 10.1002/jps.2600650919, PMID: 966149. Particulars: pH 7.4.

Each structure is given as a SMILES string.

One may read the logD as lipophilicity at a set pH, counting ionised and neutral species. Low values mean a more hydrophilic compound, high ones a more lipophilic compound. `COC(=O)C1CC2=CC(=O)CCC2(C)C2CCC3(C)C(CCC34CCC(=O)O4)C12` (stereo not given) registered a logD of 2.18.

In turn, `CC12CCC(=O)C=C1CCC1C3CCC4(CCC(=O)O4)C3(C)CC(O)C12F` (stereo not given) came in with a logD of 2.4.

Take `CC12CCC(=O)C=C1C=CC1C2CCC2(C)C1CCC21CCC(=O)O1` (stereo not given): the logD came to 2.68.

`CC12CCC(=O)C=C1CC(C#N)C1C2CCC2(C)C1CCC21CCC(=O)O1` (stereo not given): the logD was found to be 1.67.

Molecule `CCOC(=O)C1CC2=CC(=O)CCC2(C)C2CCC3(C)C(C4CCC(=O)O4)CCC3C12` (stereo not given) yielded a logD of 2.54.

As to `CC12CCC(=O)C=C1CCC1C3CCC4(CCC(=O)O4)C3(C)CC3OC312` (stereo not given), the log distribution coefficient (logD) stood at 1.96.

Take `CC(C)OC(=O)C1CC2=CC(=O)CCC2(C)C2CCC3(C)C(C4CCC(=O)O4)CCC3C12` (stereo not given): the log distribution coefficient (logD) stood at 2.82.

On to `CC12CCC(=O)C=C1C1(CC1)CC1C2CCC2(C)C1CCC21CCC(=O)O1` (stereo not given), for which the logD is 3.15.

`CC12CCC(=O)C=C1C1CC1C1C2CCC2(C)C1CCC21CCC(=O)O1` (stereo not given): the logD was determined as 3.08.

As to `CC(=O)SC1CC2=CC(=O)CCC2(C)C2CCC3(C)C(CCC34CCC(=O)O4)C12` (stereo not given), the logD was 2.78.
